Values quoted from earlier work as cited in patent US20050070512A1, “Pharmaceutical composition and methods comprising combinations of 2-alkylidene-19-nor-vitamin D derivatives and an estrogen agonist/antagonist” (Pfizer Inc, priority 2003, published 2005).

Test system: HL-60 cells

For `C=C1[C@H](O)CC(=C/C=C2\CCC[C@]3(C)[C@@H]([C@H](C)CCCC(C)(C)O)CC[C@@H]23)C[C@H]1O` [2-Methylene-19-Nor-1,25-(OH)2D3, 1α,25-dihydroxy-2-methylene-19-nor-vitamin D3], the “Induction of differentiation of HL-60 cells to the monocyte (in words)” value is listed as “activity similar to 1,25-(OH)2D3”.

In the case of `C=C1[C@H](O)CC(=C/C=C2\CCC[C@]3(C)[C@@H]([C@@H](C)CCCC(C)(C)O)CC[C@@H]23)C[C@H]1O` [2-Methylene-19-Nor-20S-1,25-(OH)2D3, (20S)-1α,25-dihydroxy-2-methylene-19-nor-vitamin D3], the “Induction of differentiation of HL-60 cells to the monocyte (in words)” value is given as “extremely potent”.
